Numbered stars: 1 amine (or outer) side, 2 acyl side, 3 side chain; on linkers, the order of the positions; unused ones are H or OH. Bridge positions count the residues as written; N and C are the ends. Square brackets hold non-standard residues; d marks the D form. Peptide text beside a SMILES is read from it. I, II: the chains in the order shown. Actinocin(9to1) = Cc1c2oc3c(C)ccc(C(=O)[*:1])c3nc-2c(C(=O)[*:2])c(N)c1=O; NMeV = CN[C@H](C(=O)O)C(C)C; Sar = CNCC(=O)O
What was measured:
Human BAK-∆TM-His6 (BAK) = biological target: T1, Human BAK-∆TM-His6 (BAK) (Homo sapiens, UniProt Q16611); assay: Liposome permeabilization assay (ANTS/DPX dye release from LUVs): activation of WT BAK by BH3 peptides;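 on AUC for Experiment-2 (Mean): traces normalized between buffer minimum and 3% CHAPS maximum fluorescence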;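 on AUC for Experiment-3 (Mean): traces normalized between buffer minimum and 3% CHAPS maximum fluorescence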; assay type: biochemical; parameters: AUC for Experiment-2 (Mean) / AUC for Experiment-3 (Mean) / AUC for Experiment-1 (Mean):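 traces normalized between buffer minimum and 3% CHAPS maximum fluorescence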; conditions: for AUC for Experiment-1 (Mean) / AUC for Experiment-2 (Mean) / AUC for Experiment-3 (Mean): AUC 0-88 mins of liposome permeabilization; for AUC for Experiment-1 (Mean): Experiment-1, mean of N replicates; for AUC for Experiment-2 (Mean): Experiment-2, mean of N replicates; for AUC for Experiment-3 (Mean): Experiment-3, mean of N replicates; for EC50: Fig. 4e, AUC vs peptide dose (Suppl. Fig. 6b), n = 2 experiments each of n = 3 technical replicates, read-out: EC50 LP; for BAK activation or inhibition in liposome permeabilization: disubstituted BID-like BH3 peptides, Fig. 5c
T1 construct: C-terminus truncated recombinant human BAK containing C-terminal 6× histidine tag (MEAS-BAK); made in house; host or cells: E. coli T7 Express pLac I/Y
T1 sequence (Q16611 1-186 limits assumed): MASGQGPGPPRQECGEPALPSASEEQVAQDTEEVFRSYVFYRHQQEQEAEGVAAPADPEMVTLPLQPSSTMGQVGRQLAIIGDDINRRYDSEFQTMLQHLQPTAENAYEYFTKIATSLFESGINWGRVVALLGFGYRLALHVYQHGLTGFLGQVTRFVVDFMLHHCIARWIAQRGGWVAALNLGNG
Protocol: We performed liposome permeabilization assays as previously described[43]–[46]. […] We mixed the lipid film in ANTS/DPX solution by vortexing and sonication (~15 min) followed by extrusion through polycarbonate membrane of 2 μm pore size (Avanti Polar lipids) to generate homogenous large unilamellar vesicles (LUVs). We separated LUVs from free ANTS/DPX by S500 size exclusion chromatography and stored them at 4 °C in the dark. We prepared peptide and protein dilutions in 96-well black flat bottom plates (Costar) kept on ice. […] We quantified liposome permabilization by integrating area under curve (AUC) of normalized traces based on the Simpson’s equation, and analyzed that data in Excel and GraphPad Prism. AUC measurements reflect the kinetic and extent of liposome permeabilization and provide quantitative means for comparison between different experimental conditions (e.g., BAK mutants with gross or partial variation in activity).

GST-BAK = biological target: T2, GST-BAK (Homo sapiens, UniProt Q16611); assay: Competitive fluorescence polarization assay (displacement of BID BH3 SAHB-F); assay type: binding; conditions: displacement of 10 nM BID BH3 SAHB-fluorescein from 1 µM GST-BAK; peptide 500−0.2 µM; 60 min RT; mean ± SD, n = 9 experiments; read-out: IC50 FP
T2 construct: made in house
T2 sequence (Q16611 1-211): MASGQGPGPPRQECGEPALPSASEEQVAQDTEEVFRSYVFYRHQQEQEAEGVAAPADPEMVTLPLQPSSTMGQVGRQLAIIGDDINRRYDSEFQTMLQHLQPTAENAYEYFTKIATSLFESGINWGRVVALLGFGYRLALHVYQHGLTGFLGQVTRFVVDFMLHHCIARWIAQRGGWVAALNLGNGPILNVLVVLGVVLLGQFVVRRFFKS
Text: We also tested the monosubstituted peptides in competitive fluorescence polarization (FP) binding assays, which measure displacement from GST-BAK of BID BH3 stabilized alpha helix of BCL-2 proteins (SAHB) C-terminally tagged with fluorescein and thus informs on peptide binding affinity.
We carried out fluorescence polarization assays, measuring the displacement of the fluorescent peptide BID BH3 SAHB-F from GST-BAK, in 384-well Greiner black polystyrene plates with flat bottom (Sigma-Aldrich). Master mix consisted of 50 mM Tris-HCl pH 7.5, 50 mM KCl, 0.1 mg/mL BSA, 2 mM DTT, 0.005% Tween-20, 10 nM BID BH3 SAHB-F, and 1 µM GST-BAK. We pin transferred peptides using Biomek FX (Beckman Coulter Life Sciences, IN) to achieve final concentration of 500−0.2 µM in 20 µL final volume. We gently centrifuged plates to remove air bubbles for 1 min at 1000 rpm, and incubated them for 60 min at RT. […] Free peptide controls in each plate consisted of only BID BH3 SAHB-F and bound peptide controls containing BID BH3 SAHB-F + GST-BAK. We derived Z’-values using the equation [1 − 3(stdev^L + stdev^H)]/(average^H − average^L), where L is the free peptide control and H is the bound peptide control. […] We processed and visualized data using the software Robust Investigation of Screening Experiments (RISE) developed in house in the Pipeline Pilot platform (Accelrys, v.8.5.0). We performed at least three independent dose-response experiments for each peptide. We estimated IC50 values in RISE and GraphPad Prism v.8.0a.

[1] = test system: bak−/− bax−/− HCT116 cells; assay: Apoptosis initiated by actinomycin D and TRAIL + CHX in cells constitutively expressing BAK; assay type: cell-based, human; conditions: AUC of SYTOX Green +ve counts/confluence, 0-48 hr, n = 3
Text: We enriched for GFP positive cell populations by up to four rounds of sorting. Cells were used in apoptosis assays. […]
and doxycycline (Dox)-inducible mC-BAK. d, Representative i mmunoblot for BID and sypro red staining of BCL2allKO HCT116 cells expressing V74A and D83A mC-BAK and BID from n=2 independent experiments. e, Representative immunoblot of bak-/- bax- […]
from n=2 independent experiments . GFP positive cells were sorted three and four times to achieve similar expression levels. […]
human TRAIL and cycloheximide (CHX).
Data are presented as mean + SD for one representative of n=2 experiments each of n=3 technical replicates. g, Experimental […]
BAK (mC-BAK) monitored for 48 hr by IncuCyte imaging uptake of cell-impermeable dye SYTOX Green. AUC for kinetic traces is included. At 48 hr, we quantified percentage of SYTOX Green +ve cells (%) by fluorescence activated cell sorting (FACS). Data are presented as mean + SD from one of n=3 experiments each of n=3

WT tevBAK = biological target: T3, WT tevBAK (Homo sapiens, UniProt Q16611); assay: Isothermal titration calorimetry; assay type: binding; conditions: for % bound: estimated as ([BID BH3] × 100)/(KD + [BID BH3])
T3 construct: To generate tevBAK (residues 22–186), we cleaved off the histidine tag with TEV protease; His tag (vector pNIC28-Bsa4) (N, cleaved yes); made in house; host or cells: E. coli T7 Express pLac I/Y
T3 sequence (Q16611 22-186): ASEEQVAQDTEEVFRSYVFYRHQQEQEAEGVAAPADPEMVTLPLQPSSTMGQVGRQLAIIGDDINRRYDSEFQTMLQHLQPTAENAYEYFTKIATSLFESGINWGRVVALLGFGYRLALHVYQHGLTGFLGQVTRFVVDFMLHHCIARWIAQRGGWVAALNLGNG
Protocol: Protein samples were exchanged into 20 mM HEPES, 100 mM NaCl and 1 mM TCEP prior to the experiment. Titrations were performed by first injecting 0.5 μl of 250 or 500 µM BID BH3 peptides into a solution of 20 or 50 µM BAK followed by additional 2 μl injections. […] Results were analyzed using Origin software (OriginLab) provided by MicroCal. Binding constants (KD) and thermodynamic parameters were calculated from the average of two or three individual titrations by fitting the data to a single site binding model using a nonlinear least-squares fitting algorithm.

MEAS-BAK-His6 = biological target: T4, MEAS-BAK-His6 (Homo sapiens, UniProt Q16611); assay: Surface plasmon resonance; assay type: binding; conditions: 20 °C
T4 construct: C-terminus truncated recombinant human BAK containing C-terminal 6× histidine tag (MEAS-BAK); made in house; host or cells: E. coli T7 Express pLac I/Y
T4 sequence (Q16611 1-186 limits assumed): T1 sequence (Q16611 1-186 limits assumed)
Protocol: We conducted SPR experiments at 20 °C using a Pioneer FE optical biosensor (ForteBio) amd histidine-tagged MEAS-BAK-His6 immobilized on polycarboxylate hydrogel-coated gold chips preimmobilized with nitrilotriacetic acid (HisCap chips; ForteBio). We primed the chip in chelating buffer (10 mM HEPES pH 7.4, 150 mM NaCl, 50 µM EDTA, 0.005% Tween20) and preconditioned it at 10 µL/min with three 60 s injections of wash buffer (10 mM HEPES pH 8.3, 150 mM NaCl, 350 mM EDTA, 0.05% Tween20) and one 60 s injection of chelating buffer before charging with a 60 s injection of 500 µM NiCl2 in chelating buffer. After priming into binding buffer (20 mM HEPES pH 8.0, 200 mM NaCl, 1 mM TCEP, 0.01% Tween20), we injected BAK to achieve ~500 RU of captured protein. As reference cell, we charged one flow cell on the chip with Ni^2+ without adding protein. […] We included a series of buffer-only (blank) injections throughout the experiment to account for instrumental noise. […] We processed, double-referenced, solvent corrected, and analyzed the data using the software package Qdat (version 4.3.1.2, ForteBio). We determined kinetic rate constants and affinities by fitting the data to a 1:1 interaction model.

[2] = 25 °C, single site binding model

## Ac-EDIIRNIARHLAQVGDSWDRSI-NH2 [W(4)]
Human BAK-∆TM-His6 (BAK); 1 μM peptide + 50 nM BAK
  AUC for Experiment-1 (Mean): 16.565
  AUC for Experiment-2 (Mean): 21.49
  AUC for Experiment-3 (Mean): 16.942
Human BAK-∆TM-His6 (BAK); 50 μM peptide + 50 nM BAK
  AUC for Experiment-1 (Mean): 21.822
  AUC for Experiment-2 (Mean): 26.263
  AUC for Experiment-3 (Mean): 21.192
Human BAK-∆TM-His6 (BAK); 50 nM BAK
  EC50: 264 ± 9.1 nM
Human BAK-∆TM-His6 (BAK); liposome permeabilization, 50 nM BAK, Fig. 4c, e
  direct BAK activation compared to WT BID BH3: gain in direct BAK activation compared to WT BID BH3
GST-BAK
  IC50: 11500 ± 7500 nM

## Ac-EDWIRNIARHLAQVGDSMDRSI-NH2 [W(0)]
Human BAK-∆TM-His6 (BAK); 1 μM peptide + 50 nM BAK
  AUC for Experiment-1 (Mean): 14.3256
  AUC for Experiment-2 (Mean): 13.2515
  AUC for Experiment-3 (Mean): 14.8765
Human BAK-∆TM-His6 (BAK); 50 μM peptide + 50 nM BAK
  AUC for Experiment-1 (Mean): 13.3871
  AUC for Experiment-2 (Mean): 11.7489
  AUC for Experiment-3 (Mean): 12.1647
Human BAK-∆TM-His6 (BAK); 50 nM BAK
  EC50: 365 ± 22.8 nM
GST-BAK
  IC50: 10800 ± 5500 nM

## Cc1c2oc3c(C)ccc(C(=O)N[C@@H]4C(=O)N[C@H](C(C)C)C(=O)N5CCC[C@H]5C(=O)N(C)CC(=O)N(C)[C@@H](C(C)C)C(=O)O[C@@H]4C)c3nc-2c(C(=O)N[C@@H]2C(=O)N[C@H](C(C)C)C(=O)N3CCC[C@H]3C(=O)N(C)CC(=O)N(C)[C@@H](C(C)C)C(=O)O[C@@H]2C)c(N)c1=O [ActD] (I: T[dV]P[Sar][NMeV] / II: T[dV]P[Sar][NMeV]; ester I:1-I:C, II:1-II:C; linker I:N-II:N via Actinocin(9to1))
[1]; V74A 3x 15% + ActD 0.5
  AUC ActD: 753.275
[1]; V74A 3x 15% + ActD 2
  AUC ActD: 847.336
[1]; V74A 3x 15% + qVD + ActD 2
  AUC ActD: 104.738
[1]; V74A 4x 15% + ActD 0.5
  AUC ActD: 679.364
[1]; V74A 4x 15% + ActD 2
  AUC ActD: 932.591
[1]; V74A 4x 15% + qVD + ActD 0.5
  AUC ActD: 208.982
[1]; V74A 4x 15% + qVD + ActD 2
  AUC ActD: 91.8357
[1]; WT 4x 15% + ActD 0.5
  AUC ActD: 821.8
[1]; WT 4x 15% + ActD 2
  AUC ActD: 1113.4
[1]; WT 4x 15% + qVD + ActD 0.5
  AUC ActD: 162.981
[1]; WT 4x 15% + qVD + ActD 2
  AUC ActD: 59.6671

## Ac-EDIIRNIARHLAQWGDSMDRSW-NH2 [W(3)W(5)]
Human BAK-∆TM-His6 (BAK); 50 nM BAK, listed as W(3)W(5) BID BH3 ligand
  BAK activation or inhibition in liposome permeabilization: fully inhibitory
Human BAK-∆TM-His6 (BAK); 50 nM BAK, listed as W(3)W(5) BID BH3 peptide
  BAK activation or inhibition in liposome permeabilization: activates BAK efficiently at low doses, yet inhibits BAK at high doses
WT tevBAK; 10 mg/mL BAK (0.5 mM) and 2 mM peptide, from KD of […]
  % of BAK bound to peptide under crystallization conditions: ~99.99%
WT tevBAK; [2]
  ITC -T∆S: 5.53 ± 1.6 kcal/mol
  ITC ∆G: -9.02 ± 0.10 kcal/mol
  ITC ∆H: -14.55 ± 1.76 kcal/mol
WT tevBAK; [BID BH3] 1 μM, listed as W3W5 peptide
  % bound: 80%
WT tevBAK; [BID BH3] 10 μM
  % bound: 97.5%
MEAS-BAK-His6; 1:1 interaction model
  SPR kd: 2.41±0.01 ×10-2 s-1
MEAS-BAK-His6; 1:1 interaction model, read-out: SPR ka
  kon: 71900 ± 100 M⁻¹ s⁻¹
MEAS-BAK-His6; MEAS-BAK-His6 captured on Ni-NTA HisCap chip, three-fold peptide dilution series injected in triplicate, 1:1 interaction model, read-out: SPR KD
  Kd: 336 ± 1 nM
MEAS-BAK-His6; ~500 RU captured BAK
  SPR Rmax: 79.2±0.1 RU

— PMC8752837, “Structural basis of BAK activation in mitochondrial apoptosis initiation” (Nature Communications, 2022)
